Several values for one entry are separate records, joined by “and”; a condition that tells them apart may be missing. Equal entries are not always repeated. Where two headings read alike, the source gives them in different places.

The test system of data set [1] is human melanocyte cells. In words: Melanin content in melanocytes. The following applies: n = 3. Type of data set: cell-based. Here is the method: (§1) Human melanocytes (Batch number: MC210817; Guangdong Biocell Biotechnology Co. Ltd.) were cultured in DMEM/F12 medium supplemented with 20% FBS (Hyclone) and 100 U/mL penicillin at 37°C with 5% CO2 atmosphere.
Upon reaching 80%–90% confluence, human melanocyte cells were dissolved with 0.25% trypsin to create a single‐cell suspension. Then, the cells were seeded in 6‐well plates at 200 000 cells per well and cultured for 12 h in a 37°C humidified incubator (5% CO2, V/V). When the confluence of cells reached 40%–60%, they were incubated with specific peptides or the positive control for 24 h. Following the incubation period, the supernatant was removed and the adherent cells were washed with PBS before being dispersed using trypsin (700 µL/well, 0.25%). The dispersed cells were collected and centrifuged at 10 000 rpm for 10 min. The cell pellet from each well was then treated with a mixture of distilled water (200 µL), anhydrous ethanol (500 µL), and ether (500 µL). The mixture was vortexed and allowed to stand at room temperature for 20 min, followed by centrifugation at 3000 rpm for 5 min. The precipitate was dissolved in 1 mL of 1 M NaOH containing 10% DMSO, then incubated at 80°C in a water bath for 40 minutes. After incubation, the solution was transferred to a 96‐well culture plate for optical density measurement at 405 nm. Each analysis was performed in triplicate and results were expressed as mean ± standard deviation (SD).

In data set [2] the test system is human melanocyte cells. In words: MTT cytotoxicity / growth inhibition in human melanocytes. The class given is cell-based. The following applies: 24 h, n = 3. Here is the method:
as §1
For cytotoxicity, evaluation of peptides on human melanocyte cells was assessed using the standard MTT assay. Cells were seeded in 96‐well plates at a density of 10 000 cells per well and incubated for 12 h under standard culture conditions. […] A negative control group (culture medium containing 10% Dimethyl sulfoxide (DMSO), v/v) was included. Post‐treatment, 0.5 mg/mL MTT reagent was added to each well, followed by 4 h of incubation at 37°C. Formazan crystals formed in viable cells were dissolved in 150 µL DMSO, and absorbance was measured at 490 nm using a Synergy multimode reader (BioTek, USA). Each concentration was tested in triplicate. Statistical significance was determined via one‐way ANOVA (GraphPad Prism 5). All experiments were conducted in triplicate (n = 3).

In the next data set the test system is tyrosinase. In words: Tyrosinase inhibition assay (intracellular tyrosinase, lysate of treated melanocytes, L‐DOPA). Type of data set: cell-based, human. Conditions: cells treated 24 h, 475 nm, n = 3. Here is the method: The inhibition of tyrosinase activity was assessed according to the reported method. The 6‐well plates were incubated at 37°C with human melanocyte cells at a density of 2.5×10^5 cells per well in a humidified atmosphere (5% CO2) for 24 h. Subsequently, these cells were exposed to glabridin (0.00625%, V/V) as the positive control, along with other tested compounds. Following treatment, cells were incubated at 37°C for 24 h using identical conditions. After treatment, cells in each well were rinsed with a PBS buffer solution (500 µL) and lysed with a lysate buffer (100 µL containing 0.5% sodium deoxycholate) at approximately 0°C for 1 h. The resulting cell lysate was then centrifuged at 12 000 rpm at 4°C for 20 min. The protein concentration in the supernatant was quantified by a BCA Assay Kit (Beyotime Biotechnology, China). Samples were transferred to a 96‐well plate in a total volume of 100 µL ([…] of lysate supernatant and 20 µL of 0.1% L‐DOPA) and incubated for 60 min at 37°C. The absorbance was measured at 475 nm using a Synergy multimode reader (BioTek Corporation, USA).

For data set [3], the system named is human melanocyte cells. Conditions: traditional skin‐lightening agent, at similar concentrations; general statement, no reference given; cited from earlier work.

For the molecule `NC[C@H]1CC[C@H](C(=O)O)CC1` [tranexamic acid], in the data set on human melanocyte cells [1] (tranexamic acid 2.5 mg/mL, nonapeptide‐1 0.3% v/v, 24 h), the “melanin reduction, single compounds” value is given as “melanin‐reducing effects, though not as strongly as CHP‐9 alone”. Besides, the “change in cell viability” value with human melanocyte cells [2] (tranexamic acid at higher concentrations (5 and 10 mg/mL), not statistically significant) is reported as “A slight reduction in cell viability”. Also, the tyrosinase inhibition rate with tyrosinase (tranexamic acid 2.5 mg/mL, L‐DOPA 60 min 37°C) is given as 10.71%.
Turning to “Cyclo(Gln‐Gly‐Pro‐Gln‐Gly‐Pro) (head to tail) [CHP‐9]”, the “inhibitory effect on melanin production compared with glabridin” value in the data set with human melanocyte cells [1] (CHP‐9 1% versus glabridin 0.00625% v/v) was “comparable to glabridin”. Further, the “melanin content after treatment” value with human melanocyte cells [1] (CHP‐9 1%, 24 h, OD 405 nm, mean ± SD, untreated control 30.90 ± 1.13 µg/mL) was ~23.51 µg/mL and 23.51 ± 1.14 µg/mL. Moreover, in the data set with human melanocyte cells [2] (CHP‐9 across effective concentrations), the cell viability is > 90%. Further, the “cytotoxicity” value in the data set on human melanocyte cells [2] (at tested concentrations (0.0781–10 mg/mL)) is “noncytotoxic to human melanocytes”. Further, the tyrosinase inhibition rate in the data set on tyrosinase (CHP‐9 1%, lysate with 0.1% L‐DOPA 60 min 37°C) worked out at 28.57%.
Regarding `Oc1ccc(O)cc1` [hydroquinone], the “cytotoxicity” value in the data set with human melanocyte cells [3] was “exhibit cytotoxic effects”.
Consider `CC1(C)C=Cc2c(ccc3c2OC[C@@H](c2ccc(O)cc2O)C3)O1` [glabridin], for which, in the data set with human melanocyte cells [1] (glabridin 0.00625% v/v, 24 h), the “inhibition of melanin production” value is “strong inhibitory effect on melanin production”. Also, the tyrosinase inhibition rate entry in the data set on tyrosinase (glabridin 0.00625% v/v (positive control), L‐DOPA 60 min 37°C) was “approximately 14%”.

The record behind these values is paper PMC12430830, “Discovery of a Novel Cyclopeptide as Tyrosinase Inhibitor for Skin Lightening” (Skin Research and Technology, 2025).
